Entries after “also recorded” stand apart in the source; their conditions may differ.
Columns and labels:
HIV-1 BaL [1] = test: Anti-HIV activity in PBMC, p24 ELISA of supernatant; type: cell-based; conditions: Human immunodeficiency virus 1, BAL, PBMC, AZT (10 µM); read-out: inhibition of HIV-1 BaL in PBMC, extracellular p24 ELISA
HIV-1 BaL [2] = test: Anti-HIV activity in PBMC, intracellular p24 by flow cytometry; type: cell-based
Procedure: In the presence of various concentrations of the most bioactive compounds, 1×10^6 PBMCs previously stimulated with 8 μg/mL of PHA and 50UI/mL of IL-2 were treated for 1 h. […] After spinoculation, cells were washed twice with PBS 1x to remove free virions, and then, fresh medium supplemented with 20 UI/mL of IL-2, with or without the di-halogenated compounds derived from L-Tyrosine dilutions, was added. Cells were plated in 96-well culture plates and incubated for 7 days. […] In addition, antiviral activity was also assessed by measuring intracellular p24 in harvested cells. Briefly, cells were stained with fixable viability dye eFluor 506 (eBioscience, Leicestershire, UK), CD3 (UCHT1; Thermo Scientific, Wilmington, DE, USA), CD4 (RPA-T4; BD Biosciences, San Jose, CA, USA), and p24 PE (KC57; Beckman Coulter, Pasadena, CA, USA), as detailed in the manufacturer’s protocol. Later, cells were washed and resuspended in PBS, and the lecture was measured instead in the LS Fortessa cytometer (BD Biosciences, Franklin Lakes, NJ, USA). Data were analyzed using FlowJo version 10.5.3 (FlowJo, LLC, Ashland, OR, USA).

TZM-bl cells = test: MTT cytotoxicity assay; type: cell-based
Procedure: (§1) The in vitro cytotoxic effect of the di-halogenated compounds on TZM-bl cells was determined with the MTT (3-(4,5-Dimethylthiazol-2-yl)-2,5-diphenyltetrazolium bromide) assay (Sigma-Aldrich, St. Louis, MO, USA). For this purpose, 1.2 × 10^5 cells/well were seeded in 96-well plates, which were incubated at 37 °C and 5% CO2 for 24 h. DMEM was used as a negative control and serial two-fold dilutions of the compounds were performed at 9.37 to 300 μM in DMEM supplemented with 5% FBS. A total of 100 μL/well of each dilution was added and incubated for 48 h. Subsequently, the cells were washed 2 times with 1X PBS, and 30 μL of MTT solution (2 mg/mL) was added and incubated for 2 h at 37 °C, in a light-protected culture. Then, 100 µL of DMSO was added to dissolve the formazan crystals, placed in shaking for 15 min, and absorbance reading was performed at 570 nm, using the Microplate Spectrophotometer (Thermo Scientific™ Multiskan™ GO, Waltham, MA, USA). Two independent experiments evaluated each experimental condition in quadruplicate (n = 8). The percentage of viability was calculated concerning the absorbance of the controls without a compound (100% viability). The 50% cytotoxic concentration was defined as the concentration of each compound that can reduce cell viability to 50% of the untreated cell control. CC50 was calculated and analyzed with GraphPad Prism version 8.0.1 (GraphPad Software, Inc., San Diego, CA, USA).

HIV-1IIIB (X4) = test: Anti-HIV activity in infected TZM-bl cells (luciferase), pre- and post-infection treatment; type: cell-based, Human Immunodeficiency Virus Type 1 (HIV-1); conditions: for SI: selectivity index against HIV-1IIIB (CC50 and IC50 of Table 4)
Procedure: (§2) TZM-bl cells were plated in a flat-bottom 96-well plate (Corning Inc., Corning, New York, NY, USA) at the concentration of 1.2 × 10^5 cells/well and incubated for 24 h at 37 °C before the addition or not of each compound at non-cytotoxic concentrations (pre-infection treatment). Then, 1 h later the treatment was removed, and the infection was performed by adding 10 ng/mL of HIV-1IIIB p24 (X4) or 2 ng/mL of HIV-1 BaL (R5). After 3 h, the virus was removed and washed, and the compound dilutions were added again (post-infection treatment). Additionally, three wells were left for the negative control (cells without treatment or infection), the positive control of infection (cells infected with the virus without treatment), and the positive control of inhibition (AZT). Antiviral activity was quantified 48 h after treatment by measuring luciferase activity, which is directly proportional to the number of infectious virus particles in the sample [23]. The luciferase activity was quantified via luminescence emitted by the cells using Bright-GloTM Luciferase Assay System (Promega Corp., Madison, WI, USA), following the manufacturer’s instructions. Briefly, 100 μL of the reagent was added to 100 μL of TZM-bl cells and incubated for at least 2 min, protected from light. Relative light units (RLUs) were measured using the multi-mode plate reader (Thermo ScientificTM VarioskanTM LUX). Each experimental condition was performed in triplicate in two independent experiments (n = 6). The percentage inhibition was calculated as follows: 100 − (RLU of treated cells − RLU of uninfected cells/RLU of infection control − RLU of uninfected cells) × 100.

HIV-1 BaL (R5) = test: as above; type: cell-based, Human Immunodeficiency Virus Type 1 (HIV-1)
Procedure: as §2

[3] = tested on: HIV-GFP-VSV-G reporter virus; test: microbe, parasite or virus in culture; type: cell-based, HIV-1
PBMC = test: Viability assay of PBMC, flow cytometry with viability dye; type: cell-based, Human; conditions: PBMCs
Procedure: (§3) PBMCs were thawed and let in the culture in RPMI with 10% fetal bovine serum (FBS) (Gibco, Grand Island, NY, USA) for 24 h before each experiment. Cells were stimulated for 48 h with 8 μg/mL of Phytohemagglutinin-PHA (Sigma-Aldrich, St. Louis, MO, USA) and 50 UI/mL of IL-2 (Peprotech, Rocky Hill, CT, USA). In the presence of various concentrations of di-halogenated compounds derived from L-Tyrosine, 2 × 10^5 cells per well were treated and resuspended in 200 µL of fresh medium with 20 UI/mL of IL-2 and incubated in 96-well culture plates for 7 days. After 7 days post-treatment, cell viability was determined using flow cytometry. Briefly, cells were stained with fixable viability dye eFluor 506 (eBioscience, Leicestershire, UK) as detailed in the manufacturer’s protocol for 30 min in the dark. Later, cells were washed and resuspended in PBS, and the percentage of viable cells was measured instead in the LS Fortessa cytometer (BD Biosciences, Franklin Lakes, NJ, USA). Data were analyzed using FlowJo version 10.5.3 (FlowJo, LLC, Ashland, OR, USA).

MTT cytotoxicity assay = type: cell-based; conditions: human; TZM-bl cells, MTT, 48 h
Procedure: as §1

[4] = Viability assay of PBMC, flow cytometry with viability dye; type: cell-based, Human; conditions: human, PBMC stimulated with PHA and IL-2; all concentrations tested (18.75 μM up to 150 μM), 7 days; read-out: viability level on PBMCs
Procedure: as §3

[5] = Human immunodeficiency virus 1, TZM-bl, read-out: percentage inhibition of HIV-GFP-VSV-G replication
[6] = Human immunodeficiency virus 1, TZM-bl, TZM-bl cells, read-out: Percentage inhibition of HIV-1IIIB (X4 strain) replication
[7] = Human immunodeficiency virus 1, BAL, TZM-bl cells, read-out: Percentage inhibition of HIV-1 BaL replication

Cc1cn([C@H]2C[C@H](N=[N+]=[N-])[C@@H](CO)O2)c(=O)[nH]c1=O [AZT, Zidovudine, reference compound]
inhibition at 10 µM (HIV-1 BaL [1]): > 90%
inhibition at 10 µM (HIV-1 BaL [2]; Human immunodeficiency virus 1, BAL, PBMC, AZT (10 µM), positive control, read-out: inhibition of HIV-1 BaL replication in PBMC, flow cytometry (intracellular p24)): 99.4%
toxicity in words (TZM-bl cells): Neither the viral inhibition control (AZT) nor the solvent (DMSO) was toxic
inhibition at 10 µM (HIV-1IIIB (X4); Human immunodeficiency virus 1, TZM-bl, read-out: inhibition of virus infections (HIV-1IIIB)): > 90%
inhibition at 10 µM (HIV-1 BaL (R5); Human immunodeficiency virus 1, BAL, TZM-bl, read-out: inhibition of viral infection (HIV-1 BaL)): > 90%
inhibition at 10 µM [3, 5]: 93.2%
toxicity in words (PBMC): Neither the viral inhibition control (AZT) nor the solvent (DMSO) proved toxic

COc1c(Br)cc(C[C@@H](C(=O)O)N(C)C)cc1Br [TODB-2M]
inhibition at 75 µM (HIV-1 BaL [2]; Human immunodeficiency virus 1, BAL, PBMC, 168 h, 75 μM, 7 days, read-out: inhibition of HIV-1 BaL replication in PBMC, flow cytometry (intracellular p24)): 56.5%
inhibition at 150 µM (HIV-1 BaL [2]; Human immunodeficiency virus 1, BAL, PBMC, 168 h, 150 µM, 7 days, read-out: inhibition of HIV-1 BaL replication in PBMC, flow cytometry (intracellular p24)): > 60%
inhibition of HIV-1 BaL replication in PBMC, flow cytometry (intracellular p24) (HIV-1 BaL [2]; all concentrations, 7 days): over 50%
CC50 at 48 h (MTT cytotoxicity assay): 165 µM
inhibition at 18 µM (HIV-1IIIB (X4); [6]): 22.2%
inhibition at 37 µM (HIV-1IIIB (X4); [6]): -4%
inhibition at 75 µM (HIV-1IIIB (X4); [6]): 9.9%
inhibition at 150 µM (HIV-1IIIB (X4); Human immunodeficiency virus 1, TZM-bl, 150 µM, TZM-bl cells, read-out: Percentage inhibition of HIV-1IIIB (X4 strain) replication): 95.9%
IC50 (HIV-1IIIB (X4); Human immunodeficiency virus 1, HIV-1IIIB (X4), TZM-bl cells, luciferase, 48 h): ~82.7 µM
SI (HIV-1IIIB (X4)): ~1.99
IC50 (HIV-1 BaL (R5); Human immunodeficiency virus 1, BAL, TZM-bl, 48 h, HIV-1 BaL (R5), TZM-bl cells, luciferase): 114 µM
inhibition at 18 µM (HIV-1 BaL (R5); [7]): 36.3%
inhibition at 37 µM (HIV-1 BaL (R5); [7]): 34.1%
inhibition at 75 µM (HIV-1 BaL (R5); Human immunodeficiency virus 1, BAL, 75 µM, TZM-bl cells, read-out: Percentage inhibition of HIV-1 BaL replication): 37.7%
inhibition at 150 µM (HIV-1 BaL (R5); Human immunodeficiency virus 1, BAL, 150 µM, TZM-bl cells, read-out: Percentage inhibition of HIV-1 BaL replication): 45.8%
SI (HIV-1 BaL (R5); selectivity index against HIV-1 BaL (CC50 and IC50 of Table 3)): 1.45
SI [3]: 1.16
IC50 ([3]; Human immunodeficiency virus 1, TZM-bl, 48 h): 142 µM
inhibition at 150 µM [3, 5]: 44.2%
viability at 7 days [4]: > 90%

C[N+](C)(C)CCc1cc(Br)c(O)c(Br)c1 [YDB-3M]
CC50 at 48 h (MTT cytotoxicity assay): ~101 µM
cytotoxicity level (TZM-bl cells; 150 μM, 48 h): higher level of cytotoxicity
inhibition at 18 µM (HIV-1IIIB (X4); [6]): 39.2%
inhibition at 37 µM (HIV-1IIIB (X4); [6]): 1.8%
inhibition at 75 µM (HIV-1IIIB (X4); [6]): -19.4%
SI (HIV-1IIIB (X4)): ~32.65
anti-HIV activity against R5 strain in words (HIV-1 BaL (R5); HIV-1 BaL, TZM-bl cells): had no activity; also recorded: did not show significant anti-HIV activity
inhibition at 18 µM (HIV-1 BaL (R5); [7]): 7.2%
inhibition at 37 µM (HIV-1 BaL (R5); [7]): -10.2%
